Results taken from patent US7785705B2, “Flower thinning agent” (priority 2002, dated 2010).

Legend:
pear (Kosui) tree [1] = test: Flower thinning effect on pear (Kosui) tree at low air temperature and bad weather; settings: low air temperature at flowering, bad weather
Description: Using a pear (Kosui) tree, flower thinning effect was confirmed. That is, using the aforementioned pear tree, the flower thinning agent of Example 1 was spread at a concentration indicated in Table 10 two times, at a flowering rate of 30% and 80%. In this respect, at the present experiment, an air temperature at flowering was low, and weather was bad. Therefore, a scatter in flowering was greater than usual. […] Treatment was every branch treatment, and the agent was spread with a back loading sprayer.
(§1) Assessment was expressed as a remaining fruit rate relative to the number of flowering. Regarding medicine damage, results of observation of a leaf state such as defoliation, discolored leaf and deformed leaf were expressed by the following five stages.
According to the same manner as that of Application Example 64 except that any of the flower thinning agents of Examples 4, 5, 7, 9, 15 and 21, and Comparative Examples 1, 4, 8 and 10 was used in place of the flower thinning agent of Example 1, an experiment was performed.
(§2) An effective ingredient concentration was based on a solid matter weight of a lime and sulfur agent.
(§3) An effective ingredient concentration was based on a solid matter weight of itaconic acid.
(§4) An effective ingredient concentration was based on a solid matter weight of high purity lecithin.
An effective ingredient concentration was based on a solid matter weight of calcium formate.

apple (Fuji) tree = test: Flower thinning effect on apple (Fuji) tree, agent spread two times, one day and three days after full blooming of a central flower; format: in vivo
Description: Using an apple (Fuji) tree, flower thinning effect was confirmed. […] Assessment was expressed by a remaining fruit rate regarding a central flower and a lateral flower.

grape (King Dela) tree = test: Flower thinning effect on grape (King Dela) tree, agent spread two times, at a flowering rate of 30% and 80%; format: in vivo
Description: Using a grape (King Dela) tree, flower thinning effect was confirmed.
Assessment was expressed as a remaining fruit rate regarding the number of flowering.

pear (Kosui) tree [2] = test: Flower thinning effect on pear (Kosui) tree, agent spread two times, at a flowering rate of 30% and 80%; format: in vivo
Description: Using a pear (Kosui) tree, flower thinning effect was confirmed. That is, using the aforementioned pear tree, the flower thinning agent of Example 1 was spread at a concentration indicated in Table 6 two times, at a flowering rate of 30% and 80%. […] Treatment was every branch treatment, and the agent was spread with a back loading sprayer.
as §1, §2, §3, §4

[3] = effective ingredient conc. 0.33%
[4] = effective ingredient conc. 1.00%

Row | SMILES | Remaining fruit rate (%) (pear (Kosui) tree [1]; effective ingredient conc. 0.15%) | Remaining fruit rate (%) (pear (Kosui) tree [1]; effective ingredient conc. 0.45%) | Fruition rate (%) Central flower (apple (Fuji) tree; [3]) [%] | Fruition rate (%) Lateral flower (apple (Fuji) tree; [3]) [%] | Fruition rate (%) Central flower (apple (Fuji) tree; [4]) [%] | Fruition rate (%) Lateral flower (apple (Fuji) tree; [4]) [%] | Remaining fruit rate (%) (grape (King Dela) tree; [3]) | Remaining fruit rate (%) (grape (King Dela) tree; [4]) | Remaining fruit rate (%) (pear (Kosui) tree [1]; [3]) | Remaining fruit rate (%) (pear (Kosui) tree [1]; [4]) | Remaining fruit rate (%) (pear (Kosui) tree [2]; [3]) | Remaining fruit rate (%) (pear (Kosui) tree [2]; [4])
1 | O=C[O-].O=C[O-].[Ca+2] [calcium formate] | 79.9 | 72.3 |  |  |  |  |  |  |  |  |  | 
2 | C=C(CC(=O)O)C(=O)O [itaconic acid] |  |  | 88.2 | 57.9 | 85.4 | 50.3 | 57.5 | 53.0 | 70.0 | 63.9 | 57.9 | 53.3
